Laboratory results as given in patent US20250302862A1, “SMALL RNA DRUG FOR INHIBITING ACTIVITY OF CANCER CELLS” (Institute of Basic Medical Sciences Chinese Academy of …, priority 2022, published 2025).

How the values were obtained:
[1] = Body weight of mice with primary lung cancer; format: in vivo, mouse; details: KP mice, 10 nmol daily by gavage for one month, sphingosine(d18:1) delivery system, vs NC group
From the text: (§1) The mouse model of primary lung cancer was Kras^LSL-G12Dp53^fl/fl (KP).
(§2) Mice were weighed and assigned to the negative control group (NC group) and HQi-sRNA-2 group randomly. The NC group was the negative control, in which a sphingosine(d18:1)-NC-sRNA herbal medicine delivery system was constructed from NC-sRNA. The HQi-sRNA-2 group was the experimental group, in which a sphingosine(d18:1)-HQi-sRNA-2 herbal medicine delivery system was constructed from HQi-sRNA-2.
(§3) The herbal medicine delivery system was constructed by heating and mixing 10 nmol of sRNA, 100 ug of sphingosine(d18:1) and 300 ul of sterile enzyme-free water in a water bath at 90° C. for 15 minutes.
(§4) Each mouse with a uniform body weight was dosed by gavage. Each mouse was given 10 nmol of HQi-sRNA-2 mimic daily by gavage for one month.
The body weight of each mouse was recorded, the curve of body weight over time was plotted, and statistical analysis was performed.

[2] = test system: primary lung cancer Kras^LSL-G12Dp53^fl/fl (KP) mouse model; experiment: Tumor tissue apoptosis, caspase-3 immunohistochemistry of lung sections; format: in vivo; details: 10 nmol daily by gavage for one month, vs NC group
From the text: as §1, §2, §3, §4
The lungs of mice were collected to prepare pathological sections. The left lung was collected and sliced at the largest surface for every mouse, and subjected to immunohistochemistry of caspase-3. The area of positive cell population in the whole pathological section was counted, the tumor burden was calculated, and statistical analysis was performed.

cyclooxygenase-2 (COX2) [3] = experiment: COX2 mRNA (RT-PCR/QPCR) and protein (western blot) in H460 cells; format: cell-based, human; details: final concentration 10 nmol/L
Procedure: Method for cell experiment: H460 cells with a cell density of more than 90% in 10 cm2 dishes were plated in 12-well plates (2 plates) according to the cell growth rate, and transfected after 12 h, and the groups were divided as follows: • blank control group (4 wells): 200 uL of opti-MEM per well • negative control group (NC group) and experimental group (3 wells each): the system of each well was as follows • A. 100 uL of opti-MEM and 2 uL of iMax were mixed well for 5 min • B. 100 uL of opti-MEM and 5 uL of small RNA (final concentration 10 nmol/L) were mixed well • C. solution A and solution B were mixed well and let stand for 15 min, and then was added to each well at a 200 uL system • Note: 100 uL of nuclease-free water was added to 2 nmol of small RNA dry powder for dissolution at a storage concentration of 20 umol/L
Cells were collected with Trizo after 24 h of incubation and RNA was extracted. Cells on another plate were collected with RIPA lysis buffer after 48 h of incubation and protein was extracted.
(§5) The relative amount of COX-2 mRNA in the RNA in Method 1 and Method 2 was measured by RT-PCR and QPCR technologies.
(§6) The relative amount of COX-2 protein in the protein in Method 1 and Method 2 was measured by western blot technology.

cyclooxygenase-2 (COX2) [4] = experiment: COX2 mRNA and protein in lung tissues of mice with lung cancer; format: in vivo, mouse; details: lung tissues of KP mice, 10 nmol daily by gavage for one month
From the text: Methods for animal experiment: the mouse model of primary lung cancer was KrasLSL-G12Dp53fl/fl (KP).
Mice were weighed and assigned to the NC group and HQi-sRNA-2 group randomly. The NC group was the negative control, in which a sphingosine(d18:1)-NC-sRNA herbal medicine delivery system was constructed from NC-sRNA. The HQi-sRNA-2 group was the experimental group, in which a sphingosine(d18:1)-HQi-sRNA-2 herbal medicine delivery system was constructed from HQi-sRNA-2.
as §3, §4
RNA and protein were extracted from the right lung of all mice.
as §5, §6

cyclooxygenase-2 (COX2) [5] = experiment: Dual luciferase reporter assay in 293T cells; format: cell-based
Procedure: The targeting effect of HQi-sRNA-2 obtained from medicinal plants by the inventors on cyclooxygenase-2 (COX2) was studied by a dual luciferase reporter detection system, so as to study its potential to exert lipid-lowering effects.
293T cells were cultured and transfected with the HQi-sRNA-2 to be screened and NC-sRNA, respectively, and then with the dual luciferase reporter plasmid of COX2. The dual luciferase activity was detected after 48 h.

[6] = test system: pancreatic cancer ASPC-1 cells; experiment: Cell invasion (Matrigel Transwell); format: cell-based, human; details: 100 nmol/L, jetPRIME, 72 h
Procedure: 1) Matrigel basement membrane matrix was thawed on crushed ice one night before and diluted with serum-free medium to a final concentration of 200-300 ug/mL. 100 uL of the diluted Matrigel was added to each upper chamber, let stand at 37° C. for 30 min, and the supernatant was aspirated. ASPC-1 cells and BXPC-3 cells with a cell density of more than 90% in 10 cm^2 dishes were digested and resuspended with 1 mL of serum-free medium and counted. 100,000 cells (100 uL) were plated in the upper chamber, and complete medium with 10% FBS was added to the lower chamber of each chamber. Transfection was performed after 12 h, and the groups (3 wells per group) were divided as follows: • blank control group: 10 uL of jetPRIME Buffer • negative control group (NC group) and experimental group: 10 uL of jetPRIME Buffer was mixed well with 0.5 uL of jetPRIME reagent and 0.5 uL of small RNA and let stand for 15 min, and then was added to each well at a 10 uL system (final concentration 100 nmol/L) • Note: 100 uL of nuclease-free water was added to 2 nmol of small RNA dry powder for dissolution at a storage concentration of 20 umol/L
After 72 h, the medium in upper and lower chambers was discarded. The cells were fixed with paraformaldehyde at room temperature for 15 min, stained with 0.1% crystal violet at room temperature for 15 min, and rinsed with PBS. […]

HQi-sRNA-2: small RNA derived from Scutellaria baicalensis, sequence AUGGUUCGAUUCCGGAGAGGG (listed as RNA, chemistry not given here)
body weight of mice with primary lung cancer [1]: significantly maintained | tumor tissue apoptosis of mice with primary lung cancer [2]: significantly increased | mRNA level of COX2 (cyclooxygenase-2 (COX2) [3]; 24 h, RT-PCR and QPCR): significantly down-regulate | protein level of COX2 (cyclooxygenase-2 (COX2) [3]; 48 h, western blot): significantly down-regulate | mRNA level of COX2 (cyclooxygenase-2 (COX2) [4]; RT-PCR and QPCR): significantly down-regulate | protein level of COX2 (cyclooxygenase-2 (COX2) [4]; western blot): significantly down-regulate | luciferase activity (cyclooxygenase-2 (COX2) [5]; COX2 dual luciferase reporter plasmid, 48 h, compared with NC-sRNA): significantly reduce | luciferase activity (cyclooxygenase-2 (COX2) [5]; base sequence of the binding site mutated): restored

MDM-sRNA-39: small RNA derived from Maytenus hookeri, sequence GGGAUUGUAGUUCAAUUGGUCAGAGCACC (listed as RNA, chemistry not given here)
cell invasion [6]: inhibits
